Values quoted from earlier work as cited in patent US20260207569A1, “LPA1 ANTAGONISTS FOR TREATING INTERSTITIAL LUNG DISEASE” (Bristol-Myers Squibb Company, priority 2022, published 2026).

What was measured:
patients with IPF = details: cited from earlier work
patients with PPF = details: 52-week study period; cited from earlier work

Compound	Effect on decline in lung function (patients with IPF)	Progression of lung fibrosis (annual rate of decline in FVC) vs placebo (patients with PPF)
COC(=O)c1ccc2c(c1)NC(=O)/C2=C(\Nc1ccc(N(C)C(=O)CN2CCN(C)CC2)cc1)c1ccccc1 [nintedanib]	significantly reduce the decline in lung function	slower progression of lung fibrosis than those who received placebo
Cc1ccc(=O)n(-c2ccccc2)c1 [pirfenidone]	significantly reduce the decline in lung function	
